Test results reported in patent publication US20240215582A1, “METHODS OF CONTROLLING PLANT PATHOGENS” (Valent BioSciences LLC, priority 2022, published 2024).
Read-outs that look alike come from different tables or passages of the source. Marks after values point to notes of the source that are not given here.

What was measured:
[1] = test system: Zymoseptoria tritici; assay: Host plant efficacy assay (wheat); type: in vivo; settings: in vivo
[2] = test system: Podosphaera xanthii; assay: Host plant efficacy assay (cucumber); type: in vivo; settings: in vivo
[3] = test system: Phytophthora infestans; type: in vivo
[4] = test system: Pseudoperonospora cubensis; assay: Foliar application, inoculated plants, disease severity; settings: for Disease severity P. cubensis Oct. 20, 2020: carrier control severity 70; for Disease severity P. cubensis Oct. 27, 2020: carrier control severity 79; for Disease severity P. cubensis Jul. 28, 2020: carrier control severity 67; for Disease severity P. cubensis Jul. 21, 2020: carrier control severity 100
Protocol: (§1) Biological efficacy assays utilizing cervinomycins were conducted on Pseudoperonospora cubensis and Botrytis cinerea. […] Once plants had dried they were inoculated with the pathogen, then were stored in a controlled climate chamber under high humidity for 4-6 days. At the end of the experiment disease severity was determined based on the percentage of plant tissue that was visually symptomatic.

[5] = test system: Plasmospora viticola; assay: Efficacy on grape plants infected with Plasmospora viticola; settings: for % control Plasmospora viticola 1DAI: 1 day after infection; for % control Plasmospora viticola 1DAI / % control Plasmospora viticola 1DB1 / % control Plasmospora viticola 7DBI: grape plants; for % control Plasmospora viticola 1DB1: 1 day before infection; for % control Plasmospora viticola 7DBI: 7 days before infection
Description: Treatments occurred at either 1 day before infection (“1 DBI”), 7 days before infection (“7 DBI”) or 1 day after infection (“1 DAI”).

[6] = test system: Magnaporthe oryzae; type: in vivo
[7] = test system: Pyrenophora teres; assay: Host plant efficacy assay (barley); type: in vivo; settings: in vivo
[8] = test system: Cochliobolus miyabeanus; assay: In vitro growth on cervinomycin-amended growth media; type: cell-based
[9] = test system: Erysiphe diffusa; assay: Host plant efficacy assay (soybean); type: in vivo; settings: in vivo
[10] = test system: Fusarium graminearum; type: cell-based
[11] = test system: Phakopsora pachyrhizi; assay: Host plant efficacy assay (soybean); type: in vivo; settings: in vivo
[12] = test system: Botrytis cinerea; assay: Foliar application, inoculated plants, disease severity; settings: for Disease severity B. cinerea: carrier control severity 63.3; for percent control B. cinerea: vs carrier control
Protocol: as §1

[13] = 1 ppm foliar, vs carrier control
[14] = 3 ppm foliar, vs carrier control
[15] = 6 ppm foliar, vs carrier control
[16] = 12 ppm foliar, vs carrier control
[17] = 25 ppm foliar, vs carrier control
[18] = 30 ppm foliar, vs carrier control
[19] = 50 ppm foliar, vs carrier control

## COc1cc2oc3c(O)c4ccc5cc6c(c(O)c5c4c(O)c3c(=O)c2cc1OC)C(=O)N1CCOC1(C)C6 (centres unmarked) [Cervinomycin A1, cervinomycin A1]
[1]
  % control Zymoseptoria tritici Wheat 3DAI: 0 (key: 5 (about 100%); 4 (about 90%); 3 (about 70%); 2 (about 50%); 1 (about 25%); 0 (about 0%))
  % control Zymoseptoria tritici Wheat 4DBI: 0 (key: 5 (about 100%); 4 (about 90%); 3 (about 70%); 2 (about 50%); 1 (about 25%); 0 (about 0%))
[2]
  % control Podosphaera xanthii Cucumber 1DBI: 0 (key: 5 (about 100%); 4 (about 90%); 3 (about 70%); 2 (about 50%); 1 (about 25%); 0 (about 0%))
[3]; 11.3 ppm
  % control Phytophthora infestans Tomato 1DBI: 0 (0 (about 0%))
[3]; 45 ppm
  % control Phytophthora infestans Tomato 1DBI: 0 (0 (about 0%))
[3]; 180 ppm
  % control Phytophthora infestans Tomato 1DBI: 3 (3 (about 70%))
[4]; 1 ppm foliar
  Disease severity P. cubensis Oct. 20, 2020: 13%
  Disease severity P. cubensis Oct. 27, 2020: 2%
[4]; [13]
  percent control P. cubensis Oct. 20, 2020: (81%)*
  percent control P. cubensis Oct. 27, 2020: 98%
[4]; 3 ppm foliar
  Disease severity P. cubensis Jul. 28, 2020: 47%
  Disease severity P. cubensis Oct. 20, 2020: 3%
  Disease severity P. cubensis Oct. 27, 2020: 1%
[4]; [14]
  percent control P. cubensis Jul. 28, 2020: 30%
  percent control P. cubensis Oct. 20, 2020: (96%)
  percent control P. cubensis Oct. 27, 2020: 99%
[4]; 6 ppm foliar
  Disease severity P. cubensis Oct. 20, 2020: 2%
  Disease severity P. cubensis Oct. 27, 2020: 1%
[4]; [15]
  percent control P. cubensis Oct. 20, 2020: (97%)
  percent control P. cubensis Oct. 27, 2020: 99%
[4]; 7.5 ppm foliar
  Disease severity P. cubensis Jul. 28, 2020: 43%
[4]; 7.5 ppm foliar, vs carrier control
  percent control P. cubensis Jul. 28, 2020: 36%
[4]; 12 ppm foliar
  Disease severity P. cubensis Oct. 20, 2020: 1%
  Disease severity P. cubensis Oct. 27, 2020: 2%
[4]; [16]
  percent control P. cubensis Oct. 20, 2020: (99%)
  percent control P. cubensis Oct. 27, 2020: 98%
[4]; 15 ppm foliar
  Disease severity P. cubensis Jul. 28, 2020: 16%
[4]; 15 ppm foliar, vs carrier control
  percent control P. cubensis Jul. 28, 2020: 76%
[4]; 25 ppm foliar
  Disease severity P. cubensis Oct. 20, 2020: 1%
  Disease severity P. cubensis Oct. 27, 2020: 1%
[4]; [17]
  percent control P. cubensis Oct. 20, 2020: (99%)
  percent control P. cubensis Oct. 27, 2020: 99%
[4]; 30 ppm foliar
  Disease severity P. cubensis Jul. 28, 2020: 7%
  Disease severity P. cubensis Jul. 21, 2020: 3%
[4]; 30 ppm foliar, carrier control severity 98
  Disease severity P. cubensis Jul. 14, 2020: 25%
[4]; [18]
  percent control P. cubensis Jul. 14, 2020: 74%
  percent control P. cubensis Jul. 21, 2020: 97%
  percent control P. cubensis Jul. 28, 2020: 89%
[4]; 50 ppm foliar
  Disease severity P. cubensis Oct. 20, 2020: 0.4%
  Disease severity P. cubensis Oct. 27, 2020: 1%
[4]; [19]
  percent control P. cubensis Oct. 20, 2020: (99%)
  percent control P. cubensis Oct. 27, 2020: 99%
[4]; 192 ppm foliar
  Disease severity P. cubensis Jul. 21, 2020: 3%
[4]; 192 ppm foliar, vs carrier control
  percent control P. cubensis Jul. 21, 2020: 97%
[4]; foliar application
  control of Pseudoperonospora cubensis (summary of Table 3): significant control
[5]; 13-800 ppm
  control of P. viticiola (summary of Table 1): significant control
[5]; 13 ppm
  % control Plasmospora viticola 1DAI: 0%
  % control Plasmospora viticola 1DB1: 100%
  % control Plasmospora viticola 7DBI: 80%
[5]; 50 ppm
  % control Plasmospora viticola 1DAI: 0%
  % control Plasmospora viticola 1DB1: 100%
[5]; 200 ppm
  % control Plasmospora viticola 1DAI: 0%
  % control Plasmospora viticola 1DB1: 100%
  % control Plasmospora viticola 7DBI: 100%
[5]; 800 ppm
  % control Plasmospora viticola 1DAI: 7%
  % control Plasmospora viticola 1DB1: 100%
  % control Plasmospora viticola 7DBI: 100%
[6]; 11.3 ppm
  % control Magnaporthe oryzae Rice 1DBI: 0 (0 (about 0%))
[6]; 45 ppm
  % control Magnaporthe oryzae Rice 1DBI: 0 (0 (about 0%))
[6]; 180 ppm
  % control Magnaporthe oryzae Rice 1DBI: 0 (0 (about 0%))
[7]
  % control Pyrenophora teres Barley 1DBI: 0 (key: 5 (about 100%); 4 (about 90%); 3 (about 70%); 2 (about 50%); 1 (about 25%); 0 (about 0%))
[8]; 0.004 ppm in growth media
  % Control Cochliobolus miyabeanus: 1%
[8]; 0.016 ppm in growth media
  % Control Cochliobolus miyabeanus: 2%
[8]; 0.063 ppm in growth media
  % Control Cochliobolus miyabeanus: 29%
[8]; 0.25 ppm in growth media
  % Control Cochliobolus miyabeanus: 59%
[8]; 1 ppm in growth media
  % Control Cochliobolus miyabeanus: 74%
[9]
  % control Erysiphe diffusa Soybean 2DAI: 0 (key: 5 (about 100%); 4 (about 90%); 3 (about 70%); 2 (about 50%); 1 (about 25%); 0 (about 0%))
[10]; 0.004 ppm in growth media
  % Control Fusarium graminearum: 4%
[10]; 0.016 ppm in growth media
  % Control Fusarium graminearum: 6%
[10]; 0.063 ppm in growth media
  % Control Fusarium graminearum: 7%
[10]; 0.25 ppm in growth media
  % Control Fusarium graminearum: 20%
[10]; 1 ppm in growth media
  % Control Fusarium graminearum: 31%
[11]
  % control Phakopsora pachyrhizi Soybean 3DAI: 0 (key: 5 (about 100%); 4 (about 90%); 3 (about 70%); 2 (about 50%); 1 (about 25%); 0 (about 0%))
[12]; 1 ppm foliar
  Disease severity B. cinerea: 31%
  percent control B. cinerea: (51%)
[12]; 3 ppm foliar
  Disease severity B. cinerea: 17%
  percent control B. cinerea: (74%)
[12]; 6 ppm foliar
  Disease severity B. cinerea: 9%
  percent control B. cinerea: (85%)
[12]; 12 ppm foliar
  Disease severity B. cinerea: 2%
  percent control B. cinerea: (96%)
[12]; 25 ppm foliar
  Disease severity B. cinerea: 2%
  percent control B. cinerea: (96%)
[12]; 50 ppm foliar
  Disease severity B. cinerea: 1%
  percent control B. cinerea: (98%)
[12]; foliar application
  control of Botrytis cinerea (summary of Table 3): significant control
